Measurements taken from PubChem BioAssay (NCI).
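Assay format: 96-well plates, 48-hour exposure. TGI denotes the concentration required for complete inhibition of growth.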

How the values were obtained:
Test in all cases: NCI anticancer screen, dose series, 48 h
UACC-257 melanoma = system: UACC-257 melanoma
SK-MEL-2 melanoma = system: SK-MEL-2 melanoma
HCT-15 colon = system: HCT-15 colon
HCT-116 colon = system: HCT-116 colon
HOP-62 NSCLC = system: HOP-62 NSCLC
NCI-H226 lung = system: NCI-H226 lung
A498 renal = system: A498 renal
DMS 273 small cell lung = system: DMS 273 small cell lung
SK-MEL-28 melanoma = system: SK-MEL-28 melanoma
SNB-75 CNS = system: SNB-75 CNS
PC-3 prostate = system: PC-3 prostate
SW-620 colon = system: SW-620 colon
SN12C renal = system: SN12C renal
DLD-1 colon = system: DLD-1 colon
CCRF-CEM leukemia = system: CCRF-CEM leukemia
LOX IMVI melanoma = system: LOX IMVI melanoma
U251 CNS = system: U251 CNS
UACC-62 melanoma = system: UACC-62 melanoma
HT29 colon = system: HT29 colon
SK-MEL-5 melanoma = system: SK-MEL-5 melanoma
OVCAR-4 ovarian = system: OVCAR-4 ovarian
M14 melanoma = system: M14 melanoma
NCI-H23 lung = system: NCI-H23 lung
HS 578T breast = system: HS 578T breast
IGROV1 ovarian = system: IGROV1 ovarian
NCI/ADR-RES ovarian = system: NCI/ADR-RES ovarian
TK-10 renal = system: TK-10 renal
MDA-MB-231 breast = system: MDA-MB-231 breast
RXF 393 renal = system: RXF 393 renal
NCI-H460 lung = system: NCI-H460 lung
SNB-19 CNS = system: SNB-19 CNS
ACHN renal = system: ACHN renal
OVCAR-8 ovarian = system: OVCAR-8 ovarian
LXFL 529 NSCLC = system: LXFL 529 NSCLC
HCC-2998 colon = system: HCC-2998 colon
MDA-MB-435 = system: MDA-MB-435
NCI-H522 lung = system: NCI-H522 lung
786-0 renal = system: 786-0 renal
SNB-78 CNS = system: SNB-78 CNS
XF 498 CNS = system: XF 498 CNS
MDA-N = system: MDA-N
MALME-3M melanoma = system: MALME-3M melanoma
SF-268 CNS = system: SF-268 CNS
SK-OV-3 ovarian = system: SK-OV-3 ovarian
HOP-92 NSCLC = system: HOP-92 NSCLC
MOLT-4 leukemia = system: MOLT-4 leukemia
COLO 205 colon = system: COLO 205 colon
MCF7 breast = system: MCF7 breast
A549 NSCLC = system: A549 NSCLC
SR leukemia = system: SR leukemia
DU-145 prostate = system: DU-145 prostate
KM12 colon = system: KM12 colon
EKVX NSCLC = system: EKVX NSCLC
T-47D breast = system: T-47D breast
OVCAR-3 ovarian = system: OVCAR-3 ovarian
HL-60(TB) leukemia = system: HL-60(TB) leukemia
K-562 leukemia = system: K-562 leukemia
SF-539 CNS = system: SF-539 CNS
UO-31 renal = system: UO-31 renal
BT-549 breast = system: BT-549 breast
OVCAR-5 ovarian = system: OVCAR-5 ovarian
RPMI-8226 leukemia = system: RPMI-8226 leukemia
CAKI-1 renal = system: CAKI-1 renal
SF-295 CNS = system: SF-295 CNS
KM20L2 colon = system: KM20L2 colon
M19-MEL melanoma = system: M19-MEL melanoma
DMS 114 small cell lung = system: DMS 114 small cell lung

For `Cc1cc2c(c3c1c1ccccc1n3C)C(=O)C=CC2=O`, which TGI (UACC-257 melanoma) is on record?
Its TGI is 69 µM.

What about the TGI (SK-MEL-2 melanoma) of the same compound?
Its TGI is 51.9 µM.

What about the TGI (HCT-15 colon) of the same compound?
The TGI was 36.5 µM.

What about the TGI (HCT-116 colon) of the same compound?
Its TGI is 43.8 µM.

What about the TGI (HOP-62 NSCLC) of the same compound?
The TGI was over 100 µM.

What about the TGI (NCI-H226 lung) of the same compound?
The TGI was over 100 µM.

What about the TGI (A498 renal) of the same compound?
Its TGI is over 100 µM.

What about the TGI (DMS 273 small cell lung) of the same compound?
The TGI was 55.9 µM.

And the TGI (SK-MEL-28 melanoma)?
Its TGI is 47.9 µM.

What about the TGI (SNB-75 CNS) of the same compound?
Its TGI is over 100 µM.

What about the TGI (PC-3 prostate) of the same compound?
The TGI was 36.3 µM.

And the TGI (SW-620 colon)?
Its TGI is 28.7 µM.

And the TGI (SN12C renal)?
Its TGI is over 82.7 µM.

What about the TGI (DLD-1 colon) of the same compound?
Its TGI is 20.4 µM.

And the TGI (CCRF-CEM leukemia)?
Its TGI is over 24 µM.

What about the TGI (LOX IMVI melanoma) of the same compound?
The TGI was 35.6 µM.

And the TGI (U251 CNS)?
Its TGI is 45.1 µM.

And the TGI (UACC-62 melanoma)?
Its TGI is 51.1 µM.

And the TGI (HT29 colon)?
Its TGI is over 70.2 µM.

What about the TGI (SK-MEL-5 melanoma) of the same compound?
Its TGI is over 90.1 µM.

And the TGI (OVCAR-4 ovarian)?
Its TGI is 30.6 µM.

What about the TGI (M14 melanoma) of the same compound?
Its TGI is 88 µM.

And the TGI (NCI-H23 lung)?
Its TGI is 31 µM.

What about the TGI (HS 578T breast) of the same compound?
The TGI was 80.5 µM.

What about the TGI (IGROV1 ovarian) of the same compound?
The TGI was over 78.2 µM.

And the TGI (NCI/ADR-RES ovarian)?
The TGI was over 100 µM.

And the TGI (TK-10 renal)?
The TGI was 65 µM.

What about the TGI (MDA-MB-231 breast) of the same compound?
The TGI was 75 µM.

What about the TGI (RXF 393 renal) of the same compound?
Its TGI is 30.5 µM.

What about the TGI (NCI-H460 lung) of the same compound?
The TGI was over 100 µM.

What about the TGI (SNB-19 CNS) of the same compound?
Its TGI is over 100 µM.

And the TGI (ACHN renal)?
The TGI was over 64.6 µM.

What about the TGI (OVCAR-8 ovarian) of the same compound?
The TGI was 56.4 µM.

What about the TGI (LXFL 529 NSCLC) of the same compound?
Its TGI is 16.7 µM.

And the TGI (HCC-2998 colon)?
The TGI was over 92.5 µM.

And the TGI (MDA-MB-435)?
Its TGI is over 100 µM.

What about the TGI (NCI-H522 lung) of the same compound?
Its TGI is 34.7 µM.

What about the TGI (786-0 renal) of the same compound?
Its TGI is 17.3 µM.

What about the TGI (SNB-78 CNS) of the same compound?
The TGI was 98.7 µM.

And the TGI (XF 498 CNS)?
Its TGI is 37.9 µM.

What about the TGI (MDA-N) of the same compound?
The TGI was 62.5 µM.

And the TGI (MALME-3M melanoma)?
The TGI was over 82.6 µM.

What about the TGI (SF-268 CNS) of the same compound?
The TGI was 70.5 µM.

What about the TGI (SK-OV-3 ovarian) of the same compound?
Its TGI is over 100 µM.

What about the TGI (HOP-92 NSCLC) of the same compound?
The TGI was 31.4 µM.

What about the TGI (MOLT-4 leukemia) of the same compound?
The TGI was 12 µM.

And the TGI (COLO 205 colon)?
Its TGI is over 100 µM.

What about the TGI (MCF7 breast) of the same compound?
Its TGI is 25.8 µM.

And the TGI (A549 NSCLC)?
The TGI was over 100 µM.

What about the TGI (SR leukemia) of the same compound?
Its TGI is 4.56 µM.

And the TGI (DU-145 prostate)?
The TGI was over 100 µM.

What about the TGI (KM12 colon) of the same compound?
Its TGI is 57.9 µM.

What about the TGI (EKVX NSCLC) of the same compound?
Its TGI is over 100 µM.

And the TGI (T-47D breast)?
Its TGI is 48.8 µM.

And the TGI (OVCAR-3 ovarian)?
Its TGI is 22.9 µM.

What about the TGI (HL-60(TB) leukemia) of the same compound?
Its TGI is 16 µM.

And the TGI (K-562 leukemia)?
Its TGI is over 54 µM.

And the TGI (SF-539 CNS)?
The TGI was 71 µM.

And the TGI (UO-31 renal)?
The TGI was 36.5 µM.

What about the TGI (BT-549 breast) of the same compound?
Its TGI is 31.4 µM.

And the TGI (OVCAR-5 ovarian)?
The TGI was over 100 µM.

And the TGI (RPMI-8226 leukemia)?
Its TGI is 26.5 µM.

What about the TGI (CAKI-1 renal) of the same compound?
Its TGI is over 70.2 µM.

And the TGI (SF-295 CNS)?
Its TGI is over 88.4 µM.

What does the source list for `Oc1cccc2c1NC1=C(CCC/C1=C\c1ccccc1)C2`?
TGI (UACC-257 melanoma): > 100 µM; TGI (HCT-15 colon): > 100 µM; TGI (HCT-116 colon): > 100 µM; TGI (HOP-62 NSCLC): > 100 µM; TGI (NCI-H226 lung): > 100 µM; TGI (DMS 273 small cell lung): > 100 µM; TGI (SK-MEL-28 melanoma): > 100 µM; TGI (SW-620 colon): > 100 µM; TGI (CCRF-CEM leukemia): > 100 µM; TGI (LOX IMVI melanoma): > 100 µM; TGI (U251 CNS): > 100 µM; TGI (HT29 colon): > 100 µM; TGI (SK-MEL-5 melanoma): > 100 µM; TGI (M14 melanoma): > 100 µM; TGI (NCI-H23 lung): > 100 µM; TGI (IGROV1 ovarian): > 100 µM; TGI (TK-10 renal): > 100 µM; TGI (KM20L2 colon): > 100 µM; TGI (NCI-H460 lung): > 100 µM; TGI (SNB-19 CNS): > 100 µM; TGI (ACHN renal): > 100 µM; TGI (OVCAR-8 ovarian): > 100 µM; TGI (LXFL 529 NSCLC): > 100 µM; TGI (HCC-2998 colon): > 100 µM; TGI (NCI-H522 lung): 83.5 µM; TGI (786-0 renal): > 100 µM; TGI (XF 498 CNS): > 100 µM; TGI (M19-MEL melanoma): > 100 µM; TGI (MALME-3M melanoma): > 100 µM; TGI (SF-268 CNS): > 100 µM; TGI (SK-OV-3 ovarian): > 100 µM; TGI (MOLT-4 leukemia): > 100 µM; TGI (COLO 205 colon): > 100 µM; TGI (A549 NSCLC): > 100 µM; TGI (SR leukemia): > 100 µM; TGI (KM12 colon): > 100 µM; TGI (EKVX NSCLC): > 100 µM; TGI (OVCAR-3 ovarian): > 100 µM; TGI (HL-60(TB) leukemia): > 100 µM; TGI (K-562 leukemia): > 100 µM; TGI (DMS 114 small cell lung): > 100 µM; TGI (SF-539 CNS): > 100 µM; TGI (UO-31 renal): > 100 µM; TGI (RPMI-8226 leukemia): > 100 µM; TGI (SF-295 CNS): > 100 µM
